The source made the active and inactive calls. The calls are words filed in the database; no cut-off is given here.
How the values were obtained:
[1] = (§1) Cytotoxicity against human U2OS cells assessed as cell death at 100 uM after 24 hrs by trypan blue exclusion assay; type: functional
[2] = test system: U2OS; assay: (§2) Cytotoxicity against human U2OS cells assessed as reduction in cell viability after 24 hrs by trypan blue exclusion assay; type: functional, cell-based
[3] = test system: U2OS; assay: Induction of apoptosis in human U2OS cells assessed as necrotic cells at IC50 after 48 hrs by propidium iodide based epifluorescence microscopic analysis (reference value: 3 %); type: functional
[4] = test system: U2OS; assay: Inhibition of cell migration in human U2OS cells at IC50 measured after 10 hrs by scratch migration assay; type: functional
[5] = test system: U2OS; assay: Inhibition of cell migration in human U2OS cells at IC50 after 2 to 10 hrs by scratch migration assay; type: functional, cell-based
[6] = test system: U2OS; assay: Inhibition of cell migration in human U2OS cells assessed as detached adherent cells at IC50 measured after 10 hrs by light microscopic analysis; type: functional, cell-based
[7] = test system: U2OS; assay: Induction of apoptosis in human U2OS cells assessed as apoptotic cells at IC50 after 48 hrs by propidium iodide based epifluorescence microscopic analysis (reference value: 2 %); type: functional
[8] = test system: U2OS; assay: Inhibition of cell migration in human U2OS cells at IC50 measured after 2 hrs by scratch migration assay; type: functional
[9] = test system: U2OS; assay: Induction of apoptosis in human U2OS cells at IC50 after 24 hrs by Alexa fluor-Annexin V/DAPI staining-based epifluorescence microscopic analysis; type: functional
[10] = Induction of apoptosis in HEK293 cells at IC50 after 24 hrs by Alexa fluor-Annexin V/DAPI staining-based epifluorescence microscopic analysis; type: cell-based; conditions: human, hek293, 24 h
[11] = test system: U2OS; assay: Induction of apoptosis in human U2OS cells assessed as apoptotic cells at IC50 after 24 hrs by propidium iodide based epifluorescence microscopic analysis (reference value: 2 %); type: functional
[12] = test system: U2OS; assay: Induction of apoptosis in human U2OS cells assessed as increase in intracellular mitochondrial Ca2+ levels at IC50 by ratiometric pericam-mt based fluorescence microscopic analysis; type: functional, cell-based
[13] = as §2; type: functional, cell-based
[14] = test system: U2OS; assay: Inhibition of cell migration in human U2OS cells assessed as disturbed monolayer at IC50 measured after 10 hrs by light microscopic analysis; type: functional, cell-based
[15] = test system: U2OS; assay: Induction of apoptosis in human U2OS cells assessed as necrotic cells at IC50 after 24 hrs by propidium iodide based epifluorescence microscopic analysis (reference value: 3 %); type: functional
[16] = Induction of apoptosis in HEK293 cells assessed as increase in intracellular mitochondrial Ca2+ levels at IC50 by ratiometric pericam-mt based fluorescence microscopic analysis; type: cell-based; conditions: human
[17] = test system: U2OS; assay: as §1; type: functional

Cc1ccc(C(c2ccccc2O)N2CCc3ccccc32)cc1 (stereo unspecified)
Activity [1]: 20%

Oc1ccccc1C(c1ccccc1)N1CCc2ccccc21 (stereo unspecified)
Activity [1]: >90% | Activity [2]: Active

Cc1ccc(C(c2cc([N+](=O)[O-])ccc2O)N2CCc3ccccc32)cc1 (stereo unspecified)
Activity [3]: 15% | inhibition (INH) [4]: 32% | inhibition [5]: Active | inhibition [6]: Active | Activity [1]: >90% | Activity [7]: 23% | inhibition (INH) [8]: 7% | Activity [9]: 43% | Activity [10]: 30% | Activity [11]: 17% | Activity [12]: Active | Activity [2]: Dose-dependent effect | IC50 [13]: 74 µM | inhibition [14]: Active | Activity [15]: 12% | Activity [16]: Toxic

C=Cc1ccc(C(c2ccccc2O)N2CCOCC2)cc1 (stereo unspecified)
Activity [1]: 20%

Oc1ccccc1C(c1ccccc1)N1CCOCC1 (stereo unspecified)
Activity [1]: 20%

COc1ccc(C(c2ccccc2O)N2CCOCC2)cc1 (stereo unspecified)
Activity [1]: 20%

Oc1ccccc1C(c1ccc(Cl)cc1)N1CCOCC1 (stereo unspecified)
Activity [1]: 20%

C(=C\C(c1ccccn1)N1CCOCC1)/c1ccccc1 (stereo unspecified)
Activity [1]: 20%

Oc1ccccc1C(/C=C/c1ccccc1)N1CCOCC1 (stereo unspecified)
Activity [1]: 20%

SODIUM ORTHOVANAD
Activity [17]: 30%

Reference: ChEMBL document CHEMBL3853304, “Synthesis and biological screening for cytotoxic activity of N-substituted indolines and morpholines” (Eur J Med Chem, 2016)
